Source: patent publication US9526785B2, “Pharmaceuticals for oral delivery” (Enteris BioPharma, Inc., priority 2013, dated 2016)
Like-named read-outs stand apart in the source and are kept apart here.

Assay: Tigecycline plasma PK and % F after PO enteric-coated capsule in dogs
Assay type: in vivo, Beagle dogs
Details: female, beagle, dog, plasma, po; for concentration at 60 min / concentration at 75 min / concentration at 90 min / concentration at 120 min / concentration at 150 min / concentration at 180 min / concentration at 210 min / concentration at 240 min / concentration at 0 hr / concentration at 0.3 hr / concentration at 0.7 hr / concentration at 1 hr: Tigecycline Plasma Concentration; for concentration at 60 min / concentration at 75 min / concentration at 90 min / concentration at 120 min / concentration at 150 min / concentration at 180 min / concentration at 210 min / concentration at 240 min: SC424; for bioavailability: read-out: % F; for Tmax: read-out: Tmax (converted); for concentration at 0 hr / concentration at 0.3 hr / concentration at 0.7 hr / concentration at 1 hr: PO 30 mg unformulated enteric-coated capsule
Experimental: Adult beagle dogs weighing approximately 9 to 15 kg were used in the study. […] Room temperature was set to be maintained between approximately 20±5° C. Relative humidity was monitored but not controlled.
TEKLAD™ Certified Canine Diet was provided once daily in amounts (˜400 grams) appropriate for the size and age of the animals. Tap water was available ad libitum via automatic watering device or water bowls.
Oral dosing of enteric-coated capsules was accomplished by administering them to the back of the dog's mouth, followed by a chase of 5 mL water to ensure swallowing.
Water was provided ad libitum. […] Subsequently, each group of animals was dosed based on the protocol, i.e. either IV, or PO by capsule.
Minocycline (VWR international) was used as an internal standard. Sample processing/clean-up of plasma samples was carried out offline by protein precipitation with acidified acetonitrile using 0.5% trifluoroacetic acid (TFA).
The HPLC system consisted of Shimadzu SIL-HTc HPLC system equipped with dual Shimadzu LC-10ADvp isopumps, a Shimadzu CTO-10ASvp column temperature controller and a Shimadzu SPD-10Avp variable wavelength detector. […] Mobile phase A consisted of 23 mM phosphate buffer pH 2.5 with 4 mM 1-octanesulfonic acid, while mobile phase B consisting of 90% acetonitrile, 10% water, with 2 mM 1-octanesulfonic acid. […] The total runtime was 18 minutes per sample. The mobile phase flow rate was 1.2 mL/min. Detection was performed using the SPD-10Avp variable wavelength detector set at 350 nm, with a sensitivity of 0.001 aufs.
The samples were then centrifuged under refrigeration at 13 k rpm for 5 minutes. The supernatant was taken and the liquid removed to dryness under nitrogen in a turbovap. The dried extract was reconstituted in 60 μL of mobile phase A and the suspension was further centrifuged at 5 k rpm for 5 minutes to pellet any insoluble matter. The resulting supernatant was then injected onto the LC.
The unknown concentration in dog plasma samples was determined by interpolation of the peak area ratios of analyte:internal standard versus the ratio of their nominal concentrations into the regression line obtained from calibration standards spiked in pooled dog plasma. No regression weighting was used for the calculations. […] The calibration curve covered the range of 0.05 μg/mL to 5 μg/mL. […]
The capsules were enterically coated using a standard preclinical protocol to 10% weight gain. Two studies were conducted.

[1] = 15 mg, PO 15 mg enteric-coated capsule with 500 mg CA and 100 mg LLC, mean
[2] = 15 mg, PO 15 mg unformulated enteric-coated capsule, individual dogs
[3] = 15 mg, PO 15 mg unformulated enteric-coated capsule, mean
[4] = 30 mg, 30 mg Formulated (500 mg CA, 100 mg LLC) enteric coated capsule, Study 2 (SC430), mean (% CV) excluding animal 5256

In the case of `CN(C)c1cc(NC(=O)CNC(C)(C)C)c(O)c2c1C[C@H]1C[C@H]3[C@H](N(C)C)C(O)=C(C(N)=O)C(=O)[C@@]3(O)C(O)=C1C2=O` [Tigecycline], the concentration at 60 min [1] is reported as 18.7 ng/mL, the concentration at 60 min [2] is reported as 0 ng/mL and the concentration at 60 min [3] is reported as 0 ng/mL. For the same molecule, the concentration at 75 min [1] was 46.1 ng/mL, the concentration at 75 min [2] was 0 ng/mL and the concentration at 75 min [3] was 0 ng/mL. For the same molecule, the concentration at 90 min [1] was 53.8 ng/mL, the concentration at 90 min [2] was 0 ng/mL and the concentration at 90 min [3] was 0 ng/mL. The concentration at 120 min [1] was 51.5 ng/mL, the concentration at 120 min [2] was 0 ng/mL and the concentration at 120 min [3] was 0 ng/mL. For the same molecule, the concentration at 150 min [1] was 41.7 ng/mL, the concentration at 150 min [2] was 0 ng/mL and the concentration at 150 min [3] was 0 ng/mL. The concentration at 180 min [1] was 37.4 ng/mL, the concentration at 180 min [2] was 0 ng/mL and the concentration at 180 min [3] was 0 ng/mL. It also gave a concentration at 210 min [1] of 36.3 ng/mL, a concentration at 210 min [2] of 0 ng/mL and a concentration at 210 min [3] of 0 ng/mL. For the same molecule, the concentration at 240 min [1] was 35.2 ng/mL, the concentration at 240 min [2] was 0 ng/mL and the concentration at 240 min [3] was 0 ng/mL. It also gave a Cmax (15 mg, target dose 15 mg, enterically coated capsule, read-out: Observed Mean Cmax) of 75.5 ng/mL, an AUC(0-t) (15 mg, target dose 15 mg, enterically coated capsule, time scale adjusted to 4 hours, read-out: Observed AUC(0-t)) of 133 ng·h/mL and a bioavailability [4] of 14.9%. It also gave an AUC(0-t) (30 mg, 30 mg Formulated (500 mg CA, 100 mg LLC) enteric coated capsule, Study 2 (SC430), mean (% CV) excluding animal 5256, read-out: AUC(0-t)) of 367 ng·h/mL, a Cmax (30 mg, 30 mg Formulated (500 mg CA, 100 mg LLC) enteric coated capsule, Study 2 (SC430), mean (% CV) excluding animal 5256, read-out: Cmax) of 121 ng/mL and a Tmax [4] of 1.58 h. It also gave a bioavailability (30 mg, 30 mg Unformulated enteric coated capsule, Study 2 (SC430)) of 0%, an AUC(0-t) (30 mg, PO 30 mg enteric-coated capsule with 500 mg CA and 100 mg LLC ([…]), SC430, mean excluding animal 5256, read-out: AUC(0-t)) of 367 ng·h/mL and a Cmax (30 mg, PO 30 mg enteric-coated capsule with 500 mg CA and 100 mg LLC ([…]), SC430, mean excluding animal 5256, read-out: Cmax) of 121 ng/mL. For the same molecule, the Tmax (30 mg, PO 30 mg enteric-coated capsule with 500 mg CA and 100 mg LLC ([…]), SC430, mean excluding animal 5256) was 1.6 h, the bioavailability (30 mg, PO 30 mg enteric-coated capsule with 500 mg CA and 100 mg LLC, SC430, calculated from IV PK data of SC431, mean excluding animal 5256) was 14.9% and the bioavailability (30 mg, PO 30 mg unformulated enteric-coated capsule ([…]), SC430, individual dogs) was 0%. For the same molecule, the bioavailability (30 mg, PO 30 mg unformulated enteric-coated capsule ([…]), SC430, mean) was 0%, the Tmax (30 mg, Study 2 (SC430), 30 mg Formulated enteric coated capsule (500 mg citric acid, 100 mg LLC), oral, dogs, N=4 excluding animal 5256, mean (% CV)) was 1.58 h and the bioavailability (30 mg, Study 2 (SC430), 30 mg Unformulated enteric coated capsule (microcrystalline cellulose filler), oral, dogs, N=3, based on that study's IV arm) was 0%. The concentration at 0 hr (30 mg, SC430, individual dogs) was 0 ng/mL, the concentration at 0 hr (30 mg, SC430, mean) was 0 ng/mL and the concentration at 0.3 hr (30 mg, SC430, individual dogs) was 0 ng/mL. For the same molecule, the concentration at 0.3 hr (30 mg, SC430, mean) was 0 ng/mL, the concentration at 0.7 hr (30 mg, SC430, individual dogs) was 0 ng/mL and the concentration at 0.7 hr (30 mg, SC430, mean) was 0 ng/mL. For the same molecule, the concentration at 1 hr (30 mg, SC430, individual dogs) was 0 ng/mL and the concentration at 1 hr (30 mg, SC430, mean) was 0 ng/mL.
